For this assay, the system named is PDGF receptor on human foreskin fibroblasts / NIH/3T3 cells. The assay can be described thus: Inhibition assay: 3H-thymidine incorporation in cells stimulated with PDGF dimer. It is filed as cell-based. In general terms: Incorporation of labelled thymidine or its analogues reports DNA synthesis.

We go through one substance from US5418135A, “Method of inhibiting binding of PDGF to a PDGF receptor by biosynthetic PDGF antagonists” (Creative BioMolecules, Inc., priority 1993, dated 1995).

Protocol: One method includes the determination of ^3 H-thymidine incorporation in a cell which normally is induced to proliferate in the presence of PDGF, but which simultaneously is exposed to the prospective antagonist and to biologically active PDGF.
Human foreskin fibroblasts are grown from explants of newborn foreskin. NIH/3T3 cells were obtained from S. Aaronson (NCI). Cells are cultured in Dulbecco's modified Eagle's medium (DMEM) supplemented with 10% fetal bovine serum at 37° C. in an atmosphere of 10% CO2 and 90% air.
Cells are grown in 48-well plates to confluence and used for assay 3-4 days later. Different monomeric forms or fragments of PDGF monomers are added to the media, and after 18 hours 10 .xi.g PDGF AA dimer, AB dimer, or BB dimer and 2 .xi.Ci/ml ^3 H-thymidine are added. The cells are incubated an additional 2 hours and washed at 4° C. three times with phosphate-buffered saline (PBS) and five times with 5% trichloroacetic acid (TCA). TCA-insoluble materials are solubilized in 0.1N NaOH/0.1% SDS. The amount of incorporated ^3 H-thymidine is determined with a Beckman liquid scintillation counter.

“A: Intact recombinant PDGF A chain monomer from E. coli, Cys residues pyridylethylated to prevent dimerization”: the “inhibition of the proliferative effect of BB dimer (in words)” value (PDGF BB dimer as stimulus) was “inhibit the proliferative effect of BB dimer”. Moreover, for the setting “inhibition of PDGF dimer-induced 3H-thymidine incorporation, antagonist added 18 hours before PDGF dimer and 3H-thymidine, read-out: HALF-MAX INHIBITION”, the IC50 is 100 nM.
